Measured values: patent publication US7465814B2, “Sulfonate compound and fluorescent probe using the same” (priority 2003, dated 2008)

What was measured:
[1] = Fluorescent response to propylamine (Table 1); type: biochemical; settings: relative fluorescence intensity, blank = 10; probe 21.3 μM, propylamine 50 μM, 37° C., 10 minutes
Experimental: Moreover, in other conditions than those of the above-described tests, reactivity of all of the compounds 1a to 1d with H2O2, other various kinds of nucleophilic agents, reducing agents and the like also was tested, respectively. More specifically, fluorescent responses of 1a to 1d with respect to a XO-HPX system, a XO-HPX-SOD system, H2O2, ascorbic acid, 1,4-hydroquinone, propylamine, diethylamine, glucose, esterase, a cytochrome P450 reductase+NADPH system, and a diaphorase+NADH system were measured, respectively. Operational processes thereof will be described below. Firstly, 1a to 1d and the above-described reagents were dissolved in HEPES of 10 mM having a pH of 7.4 so as to prepare solutions, respectively. Next, a 96 wellmicroplate was provided, where any of the solutions of 1a to 1d (25 μM, 170 μL) was poured into each of the wells, and furthermore, 30 μL of a blank solution or 30 μL of the solution of the reagent to be reacted therewith was added thereto. Final concentrations of the solutions in the wells were adjusted so that concentrations of the solutions of 1a to 1d respectively could be 21.3 μM, that of XO could be 13.1 mU/mL, those of HPX, H2O2, ascorbic acid, 1,4-hydroquinone, propylamine, diethylamine, glucose, NADPH and NADH respectively could be 50 μM, that of cytochrome P450 reductase could be 68 mU/mL, that of diaphorase could be 65 mU/mL, and that of esterase could be 0.5 U/mL, respectively. Then, after they reacted in the wells at 37° C. for 10 minutes, fluorescent responses were measured respectively. Fluorescence intensity measurement was conducted by using an ETC-272 Peltier thermostatted single cell holder (trade name) manufactured by JASCO Corporation or a SpectraMax GeminiEM fluorescence plate reader (trade name) manufactured by Molecular Devices Corporation provided with a FP-750 spectrofluorometer (trade name) manufactured by JASCO Corporation, and by setting excitation wavelengths and emission wavelengths so that those of 1a, 1b and 1c respectively could be 485 nm and 515 nm, and those of 1d respectively could be 511 nm and 540 nm.

[2] = Tracking fluorescence with enzymatically produced superoxide (FIG. 1a-c); type: biochemical
Text: This figure is a graph showing results that are obtained by tracking fluorescence by allowing the compound 1d to react with H2O2 or superoxide produced enzymatically, a horizontal axis thereof represents a reaction time (second), and a vertical axis thereof represents a fluorescence intensity (au). In the figure, (a) represents a result obtained by a reaction in the presence of HPX and XO, (b) represents a result obtained by a reaction in the presence of HPX, XO and SOD, (c) represents a result obtained by a reaction under an anaerobic condition in the presence of HPX, XO and SOD, and (d) represents a result obtained by a reaction with only H2O2. The test results shown in FIG. 1 will be described below in further detail.
More specifically, the enzyme reaction of the compound 1d (16 μM), xanthine oxidase (XO, 0.01 U/mL) and hypoxanthine (HPX, 40 μM) at 37° C. in a HEPES buffer solution (pH 7.4, 10 mM, 2.5 mL) was tracked at an excitation wavelength of 511 nm and an emission wavelength of 531 nm, then a fluorescent response caused by the formation of the compound 2d (above Scheme 4) was observed, and a progressive curve shown in FIG. 1(a) was obtained.
A specific description thereof will be provided below. NBT has a property of being reduced by superoxide O^2−•, and thus is used for a probe for spectrophotometric measurement and the like. However, NBT has a serious problem of being reduced not only by superoxide but also by reductase that exists in a biosystem.

[3] = Quantitativity of fluorescence response in the HPX/XO system, 96-well microplate assay; type: biochemical
Experimental: According to a 96 wellmicroplate assay, sensitivity and quantitativity of the fluorescence response of the probe (the compound 1d) in the HPX/XO system were tested. Specifically, a DMSO solution of 1d (10 mM) was diluted by 400-fold with HEPES (pH 7.4, 10 mM) so as to prepare a probe solution, and this probe solution (150 μL) was mixed with a HEPES solution of HPX (10 μL) and a HEPES solution of XO (0.26 U/mL, 10 μL), and was allowed to stand still at 37° C. for 10 minutes, and thereafter, a fluorescence intensity was measured. […] A correlation coefficient of this linear calibration curve was 1.000, and an inclination thereof was 0.58 au/pmol.
More specifically, an assay condition was the same as that in the above-described measurement, except providing a DMSO solution of 1d with a concentration of 5 mM, preparing a probe solution by diluting this DMSO solution by 400-fold with HEPES (pH 7.4, 10 mM), and using 180 μL of the probe solution. Fluorescence intensity measurement was conducted by using an ETC-272 Peltier thermostatted single cell holder (trade name) manufactured by JASCO Corporation or a SpectraMax GeminiEM fluorescence plate reader (trade name) manufactured by Molecular Devices Corporation provided with a FP-750 spectrofluorometer (trade name) manufactured by JASCO Corporation. As a result, a detection limit value of the concentration of HPX was 1.0 pmol (RSD, n=8; 2.9%), and a favorable linear calibration curve with a correlation coefficient of 0.9993 and an inclination of 0.80 au/pmol was obtained, with the concentration of HPX ranging from the detection limit value to 2.0 nmol. The inclination of this linear calibration curve is different from that of the above-described measurement, because of using the arbitrary units for the fluorescence intensities and the different measurement apparatuses.

Voltammetry measurement = type: physicochemical; settings: CH3CN—H2O (3:1) containing Et4NClO4

Compound: O=C1OC2(c3ccccc31)c1cc(F)c(OS(=O)(=O)c3ccc([N+](=O)[O-])cc3[N+](=O)[O-])c(F)c1Oc1c2cc(F)c(OS(=O)(=O)c2ccc([N+](=O)[O-])cc2[N+](=O)[O-])c1F [Compound 1d]
- fluorescent response, propylamine [1]: 10
- fluorescence response with HPX and XO, FIG. 1(a) ([2]; 1d 16 μM, XO 0.01 U/mL, HPX 40 μM, 37° C., HEPES pH 7.4, ex 511 nm, em 531 nm): increase a fluorescence response significantly in a short period of time
- production of 2d from 1d caused by XO reductant, FIG. 1(c) ([2]; HPX, XO and SOD under the anaerobic condition): proceeded at a very low speed
- fluorescence response with HPX, XO and SOD, FIG. 1(b) ([2]; as FIG. 1(a) plus SOD 40 U/mL): inhibited significantly
- detection limit value of HPX ([3]; 10 mM DMSO solution diluted 400-fold, 150 μL probe solution, 37° C., 10 minutes): 5.0 pmol
- inclination of linear calibration curve ([3]; 10 mM DMSO solution diluted 400-fold, 150 μL, HPX from detection limit to 10.0 nmol): 0.58 au/pmol
- detection limit value of HPX ([3]; different apparatus, 5 mM DMSO solution diluted 400-fold, 180 μL probe solution): 1.0 pmol
- inclination of linear calibration curve ([3]; different apparatus, 5 mM DMSO solution, 180 μL, HPX from detection limit to 2.0 nmol): 0.80 au/pmol
- cathode response (Voltammetry measurement): about −0.5 V vs SCE
